In experiment [1] the test system is A20-hCD38 mouse B-cell lymphoma cell line engineered to express the human CD38 cell surface protein. Nature of the experiment: Study 2: A20-hCD38 syngeneic mouse tumor model. Type of experiment: in vivo, Balb/c mice. To be noted: for GRI%: vs vehicle; for Tumor growth relative to vehicle-treated tumors (pairwise comparison): I-263a 7.5 mg/kg QW or 15 mg/kg Q2W, daratumumab 20 mg/kg BIW, or I-263a plus daratumumab, data up to Day 15, p < 0.001. As to the method: (§1) Low tumor volumes can cause problems with the data analysis, so all measurements below 25 cubic mm (including 0 values) were excluded from the analysis. After this exclusion step, the tumor volume was assumed to follow an exponential growth model. More specifically, for a given animal and treatment group,
(§2) Pairwise comparisons were performed, where the mean growth rates were compared for various pairs of treatment conditions. The results were summarized using the growth rate inhibition (GRI). Suppose µT and µC are the mean tumor growth rates for the treatment and reference groups, respectively. Define
(§3) Here, µAB, µA, µB, and µControl are the mean growth rates for the combination, drug A, drug B, and control groups, respectively. As before, µv is the mean tumor growth rate for the vehicle group, which in most cases is the same as the control group. The standard error of the synergy score was calculated as the square root of the sum of squared standard errors across the four groups. The degrees of freedom were estimated using the Welch-Satterthwaite equation. A hypothesis test was performed to determine if the synergy score differed from 0. P-values were calculated by dividing the synergy score by its standard error and tested against a t-distribution (two-tailed) with the above-calculated degrees of freedom. A P value of less than 0.05 is statistically significant.
(§4) The combination results can be interpreted as follows. Statistically significant negative synergy scores indicate a synergistic combination (“Syn.”). Statistically significant positive synergy scores indicate a sub-additive combination (“Sub-add.”) when the combination performs better (i.e. has a lower growth rate) than the best performing single agent. Statistically significant positive synergy scores indicate an antagonistic combination (“Antag.”) when the combination performs worse than the best performing single agent. Scores that are not statistically significant should be considered additive (“Add.”).
A20-hCD38 is a mouse B-cell lymphoma cell line engineered to express the human CD38 cell surface protein. An A20-hCD38 syngeneic mouse tumor model was generated by subcutaneous inoculation with 5.0 × 10^6 cells (cell suspension) in 6 weeks old female Balb/c mice (Jackson Laboratory, 10 Discovery Dr., Farmington, CT) in the flank. When the mean tumor volume reached approximately 70 mm^3, the animals were randomized into one vehicle control and five treatment groups (n=8/group). Mice were dosed with 20% HPβCD or Compound I-263a or daratumumab over a 28-day period. Tumor growth and body weight were measured twice per week during the treatment and post-treatment periods, and mice were humanely euthanized once they had reached their humane endpoint.
A 1.575 mg/mL and a 0.788 mg/mL stock solution of I-263a was formulated weekly in 20% HPβCD and administered IV based on an average body weight using a 0.2 mL dosing volume. Final doses I-263a received were 15 mg/kg or 7.5 mg/kg, respectively. I-263a was administered on a QW or Q2W schedule for 4 weeks (Days 1, 8, 15, and 22). Daratumumab (anti-CD38 antibody) (Myoderm Medical Supplies, 48 E Main St., Norristown, PA 19401) was purchased at the beginning of the study and stored at 4° C. according to manufacturer’s instructions. Final dose daratumumab received was 20 mg/kg based on average body weight. Daratumumab was administered intraperitoneally (IP) using a 0.1 mL dosing volume, on a BIW schedule for 4 weeks (Days 1, 4, 8, 11, 15, 18, 22 and 25).
Tumors were measured twice weekly using Vernier calipers. Tumor volumes were calculated using standard equation: V = W^2 × L/2, where V = volume, W = width, and L = length for the tumor. When mean tumor volumes reached approximately 70 mm^3, mice were randomized into control and treatment groups. Mice were randomized into 6 groups (n=8/group) and dosed with vehicle (20% HPβCD), I-263a, daratumumab, or the combination of I-263a plus daratumumab at doses and schedules as described above. […]

For experiment [2], the system named is NCI-H929 human multiple myeloma cell line. Nature of the experiment: Study 5: NCI-H929 xenograft human multiple myeloma subcutaneous tumor model. The class given is in vivo, SCID mice. To be noted: for GRI%: vs vehicle; for Tumor growth compared to vehicle (pairwise comparison): I-263a 7.5 mg/kg BIW 2 weeks (p > 0.05), daratumumab 2.5, 7.5 or 20 mg/kg BIW 2 weeks alone or combined with I-263a (p < 0.001). The protocol:
as §1, §2, §3, §4
NCI-H929 is a human multiple myeloma cell line. A NCI-H929 human xenograft tumor model was generated by subcutaneous inoculation with 1.0 × 10^7 NCI-H929 cells (cell suspension) in 7 weeks old female SCID mice (Vital River Laboratory Animal Technology Co., Ltd, Beijing, China) in the flank. When the mean tumor volume reached approximately 180 mm^3, the animals were randomized into one vehicle control and seven treatment groups (n=10/group). Mice were then dosed with 20% HPβCD or Compound I-263a or daratumumab over a 14-day period. Tumor growth and body weight were measured twice per week during the treatment and post-treatment periods, and mice were humanely euthanized once they had reached their humane endpoint.
A 1.5 mg/mL stock solution of I-263a was formulated weekly in 20% HPβCD and administered IV based on exact animal body weight on each day of treatment, using a dosing volume of 5 mL/kg body weight. Final dose I-263a received was 7.5 mg/kg. I-263a was administered on a BIW schedule for 2 weeks (Days 0, 3, 7, and 10). Daratumumab (anti-CD38 antibody) (Janssen Biotech, Inc., Horsham, PA) was stored at 4° C. according to manufacturer’s instructions. Final dose daratumumab received was 2.5 mg/kg, 7.5 mg/kg, and 20 mg/kg based on average body weight. Daratumumab was administered intraperitoneally (IP) using a 0.1 mL dosing volume, on a BIW schedule for 2 weeks (Days 0, 3, 7, and 10).
Tumors were measured twice weekly using Vernier calipers. Tumor volumes were calculated using standard equation: V = W^2 × L/2, where V = volume, W = width, and L = length for the tumor. When mean tumor volumes reached approximately 180 mm^3, mice were randomized into control and treatment groups. Mice were randomized into 8 groups (n=8/group) and dosed with vehicle (20% HPβCD), I-263a, daratumumab, or the combination of I-263a plus daratumumab at doses and schedules as described above. Tumor size and body weight were measured twice a week for the duration of the study. […]
On the technique in general: Xenograft models place foreign cells or tissue in a host animal.

The subject of experiment [3] is RPMI-8226 human multiple myeloma cell line. In words: Study 6: RPMI-8226 human multiple myeloma subcutaneous tumor model. The class given is in vivo, SCID mice. The note with it: for GRI%: vs vehicle; for Tumor growth compared to vehicle-treated tumors (pairwise comparison): I-263a 7.5 mg/kg BIW 2 weeks, daratumumab 2.5, 7.5 or 20 mg/kg BIW 2 weeks, or both, p > 0.05.

The values that follow come from patent US20230218618A1, “ADMINISTRATION OF SUMO-ACTIVATING ENZYME INHIBITOR AND ANTI-CD38 ANTIBODIES” (MILLENNIUM PHARMACEUTICALS, INC., priority 2020, published 2023).

As for “Daratumumab: immunoglobulin G1 kappa (IgG1κ) human monoclonal antibody against CD38 antigen”, the “Tumor volume on Day 15 (± SEM)” value in experiment [1] (Daratumumab 20 mg/kg BIW IP) is given as 1443.7 ± 276.4. Besides, the GRI% is recorded as 3% in experiment [1] (Daratumumab 20 mg/kg BIW IP); 37% in experiment [2] (Daratumumab 2.5 mg/kg BIW IP); 45% in experiment [2] (Daratumumab 7.5 mg/kg BIW IP); 54% in experiment [2] (Daratumumab 20 mg/kg BIW IP); -6% in experiment [3] (Daratumumab 2.5 mg/kg BIW IP); -2% in experiment [3] (Daratumumab 7.5 mg/kg BIW IP). The GRI% in experiment [3] (Daratumumab 20 mg/kg BIW IP) is 11%. Moreover, in experiment [1], the “Tumor growth relative to vehicle-treated tumors (pairwise comparison)” value was “significant tumor growth inhibition”. The “Tumor volume on Day 14 (± SEM)” value in experiment [2] (Daratumumab 2.5 mg/kg BIW IP) is given as 999.5 ± 187.7; in experiment [2] (Daratumumab 7.5 mg/kg BIW IP), 838.3 ± 142.8; in experiment [2] (Daratumumab 20 mg/kg BIW IP), 656.2 ± 127.2. In addition, the “Tumor growth compared to vehicle (pairwise comparison)” value in experiment [2] is reported as “significantly inhibited tumor growth curves”. Besides, the “Tumor volume on Day 20 (± SEM)” value is on record as 1875.5 ± 170.1 in experiment [3] (Daratumumab 2.5 mg/kg BIW IP), 1510.7 ± 144.6 in experiment [3] (Daratumumab 7.5 mg/kg BIW IP) and 1456.6 ± 166.6 in experiment [3] (Daratumumab 20 mg/kg BIW IP). Moreover, the “Tumor growth compared to vehicle-treated tumors (pairwise comparison)” value in experiment [3] is recorded as “not significantly different than vehicle-treated tumors”.
As to `Cc1sc(C(=O)c2cncnc2N[C@@H]2C[C@H](COS(N)(=O)=O)[C@@H](O)C2)cc1[C@@H]1NCCc2ccc(Cl)cc21` [Compound I-263a, [(1R,2S,4R)-4-{[5-({4-[(1R)-7-chloro-1,2,3,4-tetrahydroisoquinolin-1-yl]-5-methyl-2-thienyl}carbonyl)pyrimidin-4-yl]amino}-2-hydroxycyclopentyl]methyl sulfamate], the entries for the “Tumor volume on Day 15 (± SEM)” value in experiment [1] (I-263a 7.5 mg/kg QW IV) and in experiment [1] (I-263a 15 mg/kg Q2W IV) were 613.1 ± 179.3 and 839.7 ± 229.7, respectively. For the same molecule, the GRI% was 37% in experiment [1] (I-263a 7.5 mg/kg QW IV), 24% in experiment [1] (I-263a 15 mg/kg Q2W IV), 6% in experiment [2] (I-263a 7.5 mg/kg BIW IV) and -12% in experiment [3] (I-263a 7.5 mg/kg BIW IV). Moreover, in experiment [1], the “Tumor growth relative to vehicle-treated tumors (pairwise comparison)” value is on record as “significant tumor growth inhibition”. Also, in experiment [2], the “Tumor growth compared to vehicle (pairwise comparison)” value is on record as “not significantly different from vehicle”. The “Tumor volume on Day 14 (± SEM)” value in experiment [2] (I-263a 7.5 mg/kg BIW IV) is on record as 1763.8 ± 187.6. The “Tumor growth compared to vehicle-treated tumors (pairwise comparison)” value in experiment [3] is “not significantly different than vehicle-treated tumors”. The “Tumor volume on Day 20 (± SEM)” value in experiment [3] (I-263a 7.5 mg/kg BIW IV) came to 1763.2 ± 213.2.
